COc1cc2nccc(Oc3ccc(NC(=O)C4(C(=O)Nc5ccc(F)cc5)CC4)cc3)c2cc1OC.O=C(O)C[C@H](O)C(=O)O
solubility (mole fraction)
Conditions | 298.2 K | 303.2 K | 308.2 K | 313.2 K | 318.2 K
in DMSO | 0.0332 | 0.0353 | 0.0376 | 0.0404 | 0.0435
in ethanol | 0.000391 | 0.000507 | 0.000724 | 0.000977 | 0.00127
in ethyl acetate | 8.8e-05 | 0.000135 | 0.000187 | 0.000277 | 0.000415
in ethylene glycol | 0.000426 | 0.000605 | 0.000839 | 0.00109 | 0.00138
in isopropanol | 0.000529 | 0.00068 | 0.000944 | 0.0013 | 0.00169
in methanol | 0.000169 | 0.000262 | 0.000372 | 0.000503 | 0.000705
in n-butanol | 0.000675 | 0.000932 | 0.00128 | 0.00166 | 0.00215
in propylene glycol | 0.000715 | 0.00098 | 0.00131 | 0.00179 | 0.00238
in sec-butanol | 0.000687 | 0.000943 | 0.00135 | 0.00173 | 0.00221
in transcutol | 0.00179 | 0.00231 | 0.00315 | 0.0042 | 0.00545
in water | 2.27e-07 | 3.4e-07 | 4.82e-07 | 6.52e-07 | 8.5e-07

Conditions | solubility (mole fraction)
in PEG-400, 298.2 K | 0.00354
in PEG-400, 303.2 K | 0.00538
in PEG-400, 308.2 K | 0.00749
in PEG-400, 313.2 K | 0.0105
in PEG-400, 318.2 K | 0.0142
